Assay results reported in patent US20130071854A1, “METHODS FOR THE IDENTIFICATION AND CHARACTERIZATION OF HDAC INTERACTING COMPOUNDS” (priority 2009, published 2013).
Where two headings read alike, the source gives them in different places.

What was measured:
[1] = test system: MIER1; test: Chemoproteomic binding profiling, K562 cell extract, SAHA/ITF2357 probe matrix (Kd app), ELSA (ELM-SANT) domain protein; set-up: species or system human; conditions: ELSA (ELM-SANT) domain proteins
[2] = test system: T1, MiDAC complex (HDAC1/2, DNTTIP1, CDYL, MIDEAS); test: Chemoproteomic binding profiling, K562 cell extract, SAHA/ITF2357 probe matrix (Kd app); set-up: species or system human
T1 construct: Kd^app MIDEAS; other: protein MIDEAS; MiDAC complex; Kd^app DNTTIP1; other: protein DNTTIP1

[3] = test system: NuRD complex; test: as above; set-up: species or system human
[4] = test system: Sin3 complex; test: as above; set-up: species or system human
[5] = biological target: T2, non-HDAC targets (e.g. BZW2, ISOC2, aldehyde dehydrogenases) (Homo sapiens, UniProt Q96AB3); test: as above; conditions: protein ISOC2; selected HDACi off-targets
T2 construct: endogenous in cells; host or cells: K562 whole cell extract
T2 sequence (Q96AB3 1-205): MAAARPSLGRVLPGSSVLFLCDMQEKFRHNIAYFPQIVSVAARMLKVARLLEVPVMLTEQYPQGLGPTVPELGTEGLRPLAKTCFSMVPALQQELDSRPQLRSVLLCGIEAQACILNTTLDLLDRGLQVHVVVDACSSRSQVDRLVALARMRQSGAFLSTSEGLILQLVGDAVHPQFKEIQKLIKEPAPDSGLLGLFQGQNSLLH

[6] = biological target: T3, non-HDAC targets (e.g. BZW2, ISOC2, aldehyde dehydrogenases) (Homo sapiens, UniProt O94788); test: as above; conditions: protein ALDH1A2; selected HDACi off-targets
T3 construct: endogenous in cells; host or cells: K562 whole cell extract
T3 sequence (O94788 1-518): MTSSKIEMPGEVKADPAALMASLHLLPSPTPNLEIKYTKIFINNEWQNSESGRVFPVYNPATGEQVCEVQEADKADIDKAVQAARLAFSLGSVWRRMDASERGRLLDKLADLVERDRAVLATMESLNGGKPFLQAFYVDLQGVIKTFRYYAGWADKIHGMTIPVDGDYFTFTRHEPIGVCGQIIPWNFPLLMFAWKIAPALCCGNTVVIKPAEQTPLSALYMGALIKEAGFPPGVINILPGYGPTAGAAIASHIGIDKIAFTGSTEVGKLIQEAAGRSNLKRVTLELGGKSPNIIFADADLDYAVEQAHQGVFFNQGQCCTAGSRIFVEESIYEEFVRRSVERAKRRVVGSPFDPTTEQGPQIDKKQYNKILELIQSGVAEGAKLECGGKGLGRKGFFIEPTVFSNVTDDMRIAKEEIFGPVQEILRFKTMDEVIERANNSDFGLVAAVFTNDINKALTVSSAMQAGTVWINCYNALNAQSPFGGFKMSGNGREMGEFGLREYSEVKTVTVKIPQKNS

[7] = biological target: T4, non-HDAC targets (e.g. BZW2, ISOC2, aldehyde dehydrogenases) (Homo sapiens, UniProt Q9Y6E2); test: as above; conditions: protein BZW2; selected HDACi off-targets
T4 construct: endogenous in cells; host or cells: K562 whole cell extract
T4 sequence (Q9Y6E2 1-419): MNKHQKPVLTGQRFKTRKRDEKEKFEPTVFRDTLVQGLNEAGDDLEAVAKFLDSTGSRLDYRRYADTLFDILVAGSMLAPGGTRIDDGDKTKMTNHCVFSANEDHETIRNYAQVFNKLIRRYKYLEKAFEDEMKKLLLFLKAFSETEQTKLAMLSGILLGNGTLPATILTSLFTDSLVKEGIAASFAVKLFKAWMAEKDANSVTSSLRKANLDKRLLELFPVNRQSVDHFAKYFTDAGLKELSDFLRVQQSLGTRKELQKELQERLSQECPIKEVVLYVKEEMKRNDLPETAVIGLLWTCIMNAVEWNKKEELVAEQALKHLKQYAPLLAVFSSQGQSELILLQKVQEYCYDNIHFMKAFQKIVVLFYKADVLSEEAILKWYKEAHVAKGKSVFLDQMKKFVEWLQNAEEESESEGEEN

[8] = biological target: T5, non-HDAC targets (e.g. BZW2, ISOC2, aldehyde dehydrogenases) (Homo sapiens, UniProt Q08209); test: as above; conditions: protein PPP3CA; selected HDACi off-targets
T5 construct: Kd^app PPP3CA; other: protein PPP3CA; selected HDACi off-targets

[9] = biological target: T6, non-HDAC targets (e.g. BZW2, ISOC2, aldehyde dehydrogenases) (Homo sapiens, UniProt P16152); test: as above; conditions: protein CBR1; selected HDACi off-targets
T6 construct: Kd^app CBR1; other: protein CBR1; selected HDACi off-targets
T6 sequence (P16152 1-277): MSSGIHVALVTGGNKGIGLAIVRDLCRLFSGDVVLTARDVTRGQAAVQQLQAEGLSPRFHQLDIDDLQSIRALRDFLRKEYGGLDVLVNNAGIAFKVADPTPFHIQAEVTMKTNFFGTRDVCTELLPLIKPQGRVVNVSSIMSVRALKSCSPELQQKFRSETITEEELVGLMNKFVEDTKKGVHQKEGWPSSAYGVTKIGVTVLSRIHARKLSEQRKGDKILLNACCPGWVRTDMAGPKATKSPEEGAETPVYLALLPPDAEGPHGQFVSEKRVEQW

[10] = test system: RERE; test: Chemoproteomic binding profiling, K562 cell extract, SAHA/ITF2357 probe matrix (Kd app), ELSA (ELM-SANT) domain protein; set-up: species or system human
[11] = test system: EHMT2; test: Chemoproteomic binding profiling, K562 cell extract, SAHA/ITF2357 probe matrix (Kd app), ELSA (ELM-SANT) domain proteins group; set-up: species or system human; conditions: protein EHMT2
[12] = test system: MIER3; test: Chemoproteomic binding profiling, K562 cell extract, SAHA/ITF2357 probe matrix (Kd app), ELSA (ELM-SANT) domain protein; set-up: species or system human; conditions: ELSA (ELM-SANT) domain proteins
[13] = test system: MIER2; test: as above; set-up: species or system human; conditions: ELSA (ELM-SANT) domain proteins
[14] = test system: CoREST complex; test: Chemoproteomic binding profiling, K562 cell extract, SAHA/ITF2357 probe matrix (Kd app); set-up: species or system human
[15] = test system: acetylated tubulin; test: Cell-based tubulin acetylation assay (immunofluorescence, western blotting); set-up: species or system human; conditions: K562 and HeLa cells; immunofluorescence and western blotting
[16] = test system: acetylated histones H3 and H4; test: Cell-based histone acetylation assay (immunofluorescence, western blotting); set-up: species or system human; conditions: K562 and HeLa cells
[17] = biological target: T7, HDAC10 (Homo sapiens, UniProt Q969S8); test: Chemoproteomic binding profiling, K562 cell extract, SAHA/ITF2357 probe matrix (Kd app); conditions: protein HDAC10; class II HDAC; read-out: Kd^app HDAC10
T7 construct: used to probe endogenous HDACs in K562 whole cell extracts; endogenous in cells
T7 sequence (Q969S8 1-669): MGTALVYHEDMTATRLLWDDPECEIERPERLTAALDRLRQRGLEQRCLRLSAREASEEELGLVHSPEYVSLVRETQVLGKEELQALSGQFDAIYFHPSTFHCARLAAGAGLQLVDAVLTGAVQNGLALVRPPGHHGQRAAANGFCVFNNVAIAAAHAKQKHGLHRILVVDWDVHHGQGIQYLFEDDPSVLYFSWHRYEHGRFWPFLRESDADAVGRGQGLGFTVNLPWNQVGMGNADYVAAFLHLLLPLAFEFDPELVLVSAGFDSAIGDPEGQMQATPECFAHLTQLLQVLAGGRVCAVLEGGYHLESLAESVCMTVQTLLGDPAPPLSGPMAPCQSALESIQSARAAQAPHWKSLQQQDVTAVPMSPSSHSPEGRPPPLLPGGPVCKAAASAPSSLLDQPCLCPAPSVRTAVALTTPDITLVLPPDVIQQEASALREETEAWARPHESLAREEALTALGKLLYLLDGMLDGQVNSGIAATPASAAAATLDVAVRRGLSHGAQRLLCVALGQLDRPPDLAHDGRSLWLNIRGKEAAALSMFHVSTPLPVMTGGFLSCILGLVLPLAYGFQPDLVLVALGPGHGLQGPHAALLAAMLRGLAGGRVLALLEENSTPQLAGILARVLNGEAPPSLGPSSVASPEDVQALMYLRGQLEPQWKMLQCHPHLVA

[18] = protein RERE, ELSA (ELM-SANT) domain proteins

COc1ccc(Cn2ccc3ccc(C(=O)NO)cc32)cc1 [PCI-34051]
Kd [1]: > 59.7 µM
Kd ([2]; protein DNTTIP1, read-out: Kd^app DNTTIP1): > 59.7 µM
Kd ([2]; protein MIDEAS, read-out: Kd^app MIDEAS): > 59.7 µM
Kd ([3]; protein GATAD2A, NuRD complex, read-out: Kd^app GATAD2A): > 59.7 µM
Kd ([3]; protein GATAD2B, NuRD complex, read-out: Kd^app GATAD2B): > 59.7 µM
Kd ([3]; protein MBD2, NuRD complex, read-out: Kd^app MBD2): > 59.7 µM
Kd ([3]; protein MBD3, NuRD complex, read-out: Kd^app MBD3): > 59.7 µM
Kd ([3]; protein MTA1, NuRD complex, read-out: Kd^app MTA1): > 59.7 µM
Kd ([3]; protein MTA2, NuRD complex, read-out: Kd^app MTA2): > 59.7 µM
Kd ([3]; protein MTA3, NuRD complex, read-out: Kd^app MTA3): > 59.7 µM
Kd ([4]; protein SAP30, read-out: Kd^app SAP30): > 59.7 µM
Kd ([4]; protein SIN3A, read-out: Kd^app SIN3A): > 59.7 µM
Kd ([4]; protein SIN3B, read-out: Kd^app SIN3B): > 59.7 µM
Kd [5]: > 59.7 µM
Kd [6]: > 59.7 µM
Kd [7]: 5.04 µM
Kd [8]: 59.7 µM
Kd [9]: 12.8 µM
Kd [10, 18]: > 59.7 µM
Kd [11]: > 59.7 µM
Kd [12]: > 59.7 µM
Kd [13]: > 59.7 µM
Kd ([14]; protein GSE1, CoREST complex, read-out: Kd^app GSE1): > 59.7 µM
Kd ([14]; protein HMG20A, CoREST complex, read-out: Kd^app HMG20A): > 59.7 µM
Kd ([14]; protein HMG20B, CoREST complex, read-out: Kd^app HMG20B): > 59.7 µM
Kd ([14]; protein PHF21A, CoREST complex, read-out: Kd^app PHF21A): > 59.7 µM
Kd ([14]; protein RCOR1, CoREST complex, read-out: Kd^app RCOR1): > 59.7 µM
Kd ([14]; protein RCOR2, CoREST complex, read-out: Kd^app RCOR2): > 59.7 µM
Kd ([14]; protein RCOR3, CoREST complex, read-out: Kd^app RCOR3): > 59.7 µM
Kd ([14]; protein ZMYM2, CoREST complex, read-out: Kd^app ZMYM2): > 59.7 µM
Kd ([14]; protein ZMYM3, CoREST complex, read-out: Kd^app ZMYM3): > 59.7 µM

CC(=O)Nc1ccc(C(=O)Nc2ccccc2N)cc1 [tacedinaline]
Kd [1]: 195 µM
Kd ([3]; read-out: Kd^app CHD4): > 85 µM
Kd ([3]; read-out: Kd^app GATAD2A): 423 µM
Kd ([3]; read-out: Kd^app GATAD2B): 306 µM
Kd ([3]; read-out: Kd^app MBD2): > 85 µM
Kd ([3]; read-out: Kd^app MBD3): 265 µM
Kd ([3]; read-out: Kd^app MTA1): 152 µM
Kd ([3]; read-out: Kd^app MTA2): 226 µM
Kd ([3]; read-out: Kd^app MTA3): 263 µM
tubulin acetylation (in words) [15]: did not affect tubulin
Kd [5]: > 85 µM
Kd [6]: > 85 µM
Kd [7]: > 85 µM
Kd [8]: > 85 µM
Kd [9]: > 85 µM
Kd [10]: > 85 µM
Kd [11]: > 85 µM
histone acetylation (in words) [16]: elicited staining of acetylated histones
Kd [12]: 171 µM
Kd [13]: 184 µM
Kd ([14]; read-out: Kd^app GSE1): 122 µM
Kd ([14]; read-out: Kd^app HMG20A): 139 µM
Kd ([14]; read-out: Kd^app HMG20B): 168 µM
Kd ([14]; read-out: Kd^app RCOR1): 114 µM
Kd ([14]; read-out: Kd^app RCOR2): 196 µM
Kd ([14]; read-out: Kd^app RCOR3): 159 µM
Kd ([14]; read-out: Kd^app ZMYM2): > 85 µM
Kd ([14]; read-out: Kd^app ZMYM3): > 85 µM

Nc1ccccc1NC(=O)c1ccc(CNc2nccc(-c3cccnc3)n2)cc1 [Mocetinostat]
Kd [17]: > 271 µM
Kd [1]: 73 µM
Kd ([3]; read-out: Kd^app CHD4): 170 µM
Kd ([3]; read-out: Kd^app GATAD2A): 183 µM
Kd ([3]; read-out: Kd^app GATAD2B): 106 µM
Kd ([3]; read-out: Kd^app MBD2): 217 µM
Kd ([3]; read-out: Kd^app MBD3): 119 µM
Kd ([3]; read-out: Kd^app MTA1): 136 µM
Kd ([3]; read-out: Kd^app MTA3): 87 µM
Kd [5]: > 271 µM
Kd [6]: 230 µM
Kd [7]: > 271 µM
Kd [8]: > 271 µM
Kd [9]: 109 µM
Kd [10, 18]: > 271 µM
Kd [11]: > 271 µM
Kd [12]: 34 µM
Kd [13]: 99 µM
Kd ([14]; read-out: Kd^app GSE1): 50 µM
Kd ([14]; read-out: Kd^app HMG20A): 53 µM
Kd ([14]; read-out: Kd^app HMG20B): 62 µM
Kd ([14]; read-out: Kd^app PHF21A): 189 µM
Kd ([14]; read-out: Kd^app RCOR1): 48 µM
Kd ([14]; read-out: Kd^app RCOR2): 103 µM
Kd ([14]; read-out: Kd^app RCOR3): 60 µM
Kd ([14]; read-out: Kd^app ZMYM2): 124 µM
Kd ([14]; read-out: Kd^app ZMYM3): 255 µM
